Test system: respiratory epithelial cells

## IL-13: human IL-13 (Peprotech, Inc.) added to the medium at 50 ng/mL to stimulate respiratory epithelial cells
Lot 1, Day 3, IMM method
  CH25H (32363_at) expression, fold change upon IL-13 stimulation: 8.9 fold
  CTSC (133_at) expression, fold change upon IL-13 stimulation: 4.7 fold
  CXCL16 (44095_at) expression fold change: 2.5 fold
  DD96 (31610_at) expression, fold change upon IL-13 stimulation: 11.4 fold
  DDIT3 (39420_at) expression, fold change upon IL-13 stimulation: 2.3 fold
  DKFZP564O0823 (41402_at) expression, fold change upon IL-13 stimulation: 6.7 fold
  DKFZP566J091 (57197_at) expression fold change: 8.2 fold
  DPYD (38220_at) expression fold change upon IL-13 stimulation: 7.5 fold
  EMILIN-2 (51628_at) expression fold change: 2.8 fold
  FABP4 (38430_at) expression, fold change upon IL-13 stimulation: 2.6 fold
  FETUB (32620_at) expression fold change: 4.1 fold
  FLJ10261 (43366_at) expression fold change: 8.2 fold
  FLJ10261 (43963_at) expression fold change: 6.6 fold
  FLJ22693 (53777_at) expression fold change: 2.1 fold
  FUT10 (908_at) expression fold change upon IL-13 stimulation: 4 fold
  G1P3 (1358_s_at) expression, fold change upon IL-13 stimulation: 7.1 fold
  GBP5 (52615_at) expression fold change: 2.5 fold
  HDAC9 (37483_at) expression fold change upon IL-13 stimulation: 3.1 fold
  HLA-F (37420_i_at) expression, fold change upon IL-13 stimulation: 3 fold
  HLA-F (49203_f_at) expression fold change: 3.1 fold
  HS3ST1 (41556_s_at) expression fold change upon IL-13 stimulation: 2.2 fold
  IFI27 (425_at) expression, fold change upon IL-13 stimulation: 4.5 fold
  IFI27 (48864_at) expression fold change: 4 fold
  IFI35 (464_s_at) expression, fold change upon IL-13 stimulation: 9.6 fold
  IFI44 (37641_at) expression, fold change upon IL-13 stimulation: 8 fold
  IFIT1 (915_at) expression, fold change upon IL-13 stimulation: 9.9 fold
  IFIT1 (32814_at) expression, fold change upon IL-13 stimulation: 7.6 fold
  IFIT4 (38584_at) expression, fold change upon IL-13 stimulation: 10.4 fold
  IFITM1 (675_at) expression, fold change upon IL-13 stimulation: 19.9 fold
  IL13RA2 (1016_s_at) expression fold change upon IL-13 stimulation: 5.1 fold
  IL19 (47855_at) expression fold change: 9.1 fold
  ILIRL1 (40322_at) expression, fold change upon IL-13 stimulation: 2.6 fold
  IRF7 (36412_s_at) expression fold change: 2.5 fold
  ISG15 (1107_s_at) expression, fold change upon IL-13 stimulation: 8.2 fold
  ISG15 (38432_at) expression, fold change upon IL-13 stimulation: 27.9 fold
  ISG20 (33304_at) expression, fold change upon IL-13 stimulation: 2.4 fold
  KIAA0537 (33787_at) expression, fold change upon IL-13 stimulation: 5.8 fold
  KIAA1268 (57050_at) expression fold change: 2.8 fold
  KRT16 (601_s_at) expression fold change: 4.6 fold
  LAMP3 (37168_at) expression, fold change upon IL-13 stimulation: 3.6 fold
  LOC57118 (51085_at) expression fold change: 3 fold
  LOC64116 (40456_at) expression, fold change upon IL-13 stimulation: 2.9 fold
  MDA5 (51920_at) expression fold change: 5.2 fold
  MMP7 (668_s_at) expression, fold change upon IL-13 stimulation: 2.2 fold
  MX2 (879_at) expression fold change: 8 fold
  MXI (37014_at) expression fold change: 10.6 fold
  NK4 (39119_s_at) expression fold change upon IL-13 stimulation: 2 fold
  NOS2A (1948_f_at) expression fold change upon IL-13 stimulation: 4.3 fold
  OAF (39695_at) expression, fold change upon IL-13 stimulation: 3.8 fold
  OAS1 (38388_at) expression fold change upon IL-13 stimulation: 5.5 fold
  OAS1 (38389_at) expression fold change upon IL-13 stimulation: 5.3 fold
  OAS2 (39263_at) expression fold change upon IL-13 stimulation: 2.9 fold
  OSF-2 (1451_s_at) expression fold change upon IL-13 stimulation: 8.8 fold
  PAK2 (1560_g_at) expression, fold change upon IL-13 stimulation: −2.1 fold
  PLS1 (39951_at) expression fold change: 2.9 fold
  PLSCR1 (32775_r_at) expression fold change upon IL-13 stimulation: 2.6 fold
  PMCH (32005_at) expression fold change: 3.3 fold
  PSMB9 (38287_at) expression fold change upon IL-13 stimulation: 2.3 fold
  RASGRP1 (33291_at) expression fold change: 2.6 fold
  RIG-1 (59215_at) expression fold change: 8.7 fold
  SCYB10 (431_at) expression fold change upon IL-13 stimulation: 3.9 fold
  SCYB11 (35061_at) expression fold change upon IL-13 stimulation: 7.9 fold
  SECTM1 (41045_at) expression, fold change upon IL-13 stimulation: 5.2 fold
  SERPINB4 (1549_s_at) expression fold change: 67.4 fold
  SERPINB6 (34789_at) expression fold change: 2.6 fold
  SIAT1 (41352_at) expression fold change upon IL-13 stimulation: 13.1 fold
  SLC26A4, pendrin (36376_at) expression fold change: 25.6 fold
  SSI-1 (41592_at) expression, fold change upon IL-13 stimulation: 5.8 fold
  STAT1 (32860_g_at) expression fold change: 2.4 fold
  STAT1 (33338_at) expression fold change: 5.7 fold
  TGFB2 (1262_s_at) expression fold change upon IL-13 stimulation: 2 fold
  TGM2 (38404_at) expression fold change upon IL-13 stimulation: 5 fold
  TSPAN-3 (38612_at) expression, fold change upon IL-13 stimulation: 2.5 fold
  UBE2L6 (40505_at) expression fold change upon IL-13 stimulation: 4.2 fold
  UFD1L (811_at) expression, fold change upon IL-13 stimulation: 2.3 fold
  WARS (38121_at) expression fold change upon IL-13 stimulation: 2.9 fold
  diubiquitin (39959_at) expression, fold change upon IL-13 stimulation: 14.4 fold
Lot 1, Day 7, AI
  AA045020 (44676_at) expression change: −2.9
  AA053401 (56234_r_at) expression change: −3.5
  AA059445 46293_at expression change: −3.7
  AA059458 (65626_at) expression change: −3.4
  AA079839 (69289_at) expression change: −2.2
  AA151265 (60939_i_at) expression change: −2.6
  AA151265 (60940_r_at) expression change: −5.9
  AA160156 (47578_at) expression change: −4.2
  AA203423 (65699_at) expression change: −2.6
  AA369887 (87539_i_at) expression change: −3.6
  AA398155 (48999_at) expression change: −2
  AA400080 (57282_at) expression change: −4.2
  AA422178 (53747_at) expression change: −2.8
  AA428312 (83988_at) expression change: −2
  AA442232 (59109_at) expression change: −2.3
  AA456099 (59567_at) expression change: −2.2
  AA772055 46104_at expression change: −3
  AA779895 59136_at expression change: −2.4
  ABCC5 1932_at expression change: −3.6
  AF052107 38262_at expression change: −4.1
  AI050855 (64285_at) expression change: −3.6
  AI432375 (49819_at) expression change: −4.5
  AI669212 55436_at expression change: −2.5
  AI740855 (83076_at) expression change: −2
  AI761647 40191_s_at expression change: −3
  AI770116 (70124_at) expression change: −2.3
  AI798733 (64163_at) expression change: −3.6
  AI829641 (84270_at) expression change: −3.3
  AI923984 33546_at expression change: −4.6

Source: patent US20050208496A1, “Methods of testing for bronchial asthma or chronic obstructive pulmonary disease” (Genox Research, Inc., priority 2002, published 2005)
